Measurements taken from patent publication EP4745137A1 (Gluetacs Therapeutics (Shanghai) Co., Ltd., priority 2023, dated 2025).

Experiments:
IKZF1 = molecular target: T1, IKZF1 (Homo sapiens, UniProt Q13422+Q96SW2); test: Western-blot assay of substrate protein degradation in hPBMCs, IKZF1; format: cell-based; details: 24 hours of compound treatment, compounds tested at 50 nM and 500 nM (concentration of the table not stated)
T1 construct: endogenous in cells; host or cells: hPBMCs (Milecell Biotechnologies)
T1 sequence (Q13422 whole entry): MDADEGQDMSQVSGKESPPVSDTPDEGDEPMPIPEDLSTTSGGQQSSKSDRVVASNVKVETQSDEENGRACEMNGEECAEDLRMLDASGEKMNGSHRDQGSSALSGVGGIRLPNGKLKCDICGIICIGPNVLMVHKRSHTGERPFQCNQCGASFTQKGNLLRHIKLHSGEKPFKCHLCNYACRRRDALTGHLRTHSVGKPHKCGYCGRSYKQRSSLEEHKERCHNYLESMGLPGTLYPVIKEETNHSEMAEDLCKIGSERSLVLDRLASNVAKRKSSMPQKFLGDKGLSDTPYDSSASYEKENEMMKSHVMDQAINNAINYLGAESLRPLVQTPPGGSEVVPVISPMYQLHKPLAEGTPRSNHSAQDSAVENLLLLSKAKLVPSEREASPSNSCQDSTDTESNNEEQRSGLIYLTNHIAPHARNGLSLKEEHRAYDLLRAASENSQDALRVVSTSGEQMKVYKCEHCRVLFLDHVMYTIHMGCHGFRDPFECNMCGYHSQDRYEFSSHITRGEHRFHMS
T1 sequence (Q96SW2 whole entry): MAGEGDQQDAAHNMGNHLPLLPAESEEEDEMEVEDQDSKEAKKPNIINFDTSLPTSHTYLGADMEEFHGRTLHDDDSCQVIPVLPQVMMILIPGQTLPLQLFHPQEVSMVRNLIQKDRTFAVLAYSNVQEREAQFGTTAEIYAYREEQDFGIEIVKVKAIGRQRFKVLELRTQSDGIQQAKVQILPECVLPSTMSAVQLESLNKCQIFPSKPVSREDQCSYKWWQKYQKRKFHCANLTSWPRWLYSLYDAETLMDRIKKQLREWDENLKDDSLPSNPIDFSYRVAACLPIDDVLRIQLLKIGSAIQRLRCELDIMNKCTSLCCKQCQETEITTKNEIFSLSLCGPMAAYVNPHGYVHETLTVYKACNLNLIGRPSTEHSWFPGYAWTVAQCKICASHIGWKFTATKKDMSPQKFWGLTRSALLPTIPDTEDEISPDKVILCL
T1 sequence (Q16531 whole entry partner): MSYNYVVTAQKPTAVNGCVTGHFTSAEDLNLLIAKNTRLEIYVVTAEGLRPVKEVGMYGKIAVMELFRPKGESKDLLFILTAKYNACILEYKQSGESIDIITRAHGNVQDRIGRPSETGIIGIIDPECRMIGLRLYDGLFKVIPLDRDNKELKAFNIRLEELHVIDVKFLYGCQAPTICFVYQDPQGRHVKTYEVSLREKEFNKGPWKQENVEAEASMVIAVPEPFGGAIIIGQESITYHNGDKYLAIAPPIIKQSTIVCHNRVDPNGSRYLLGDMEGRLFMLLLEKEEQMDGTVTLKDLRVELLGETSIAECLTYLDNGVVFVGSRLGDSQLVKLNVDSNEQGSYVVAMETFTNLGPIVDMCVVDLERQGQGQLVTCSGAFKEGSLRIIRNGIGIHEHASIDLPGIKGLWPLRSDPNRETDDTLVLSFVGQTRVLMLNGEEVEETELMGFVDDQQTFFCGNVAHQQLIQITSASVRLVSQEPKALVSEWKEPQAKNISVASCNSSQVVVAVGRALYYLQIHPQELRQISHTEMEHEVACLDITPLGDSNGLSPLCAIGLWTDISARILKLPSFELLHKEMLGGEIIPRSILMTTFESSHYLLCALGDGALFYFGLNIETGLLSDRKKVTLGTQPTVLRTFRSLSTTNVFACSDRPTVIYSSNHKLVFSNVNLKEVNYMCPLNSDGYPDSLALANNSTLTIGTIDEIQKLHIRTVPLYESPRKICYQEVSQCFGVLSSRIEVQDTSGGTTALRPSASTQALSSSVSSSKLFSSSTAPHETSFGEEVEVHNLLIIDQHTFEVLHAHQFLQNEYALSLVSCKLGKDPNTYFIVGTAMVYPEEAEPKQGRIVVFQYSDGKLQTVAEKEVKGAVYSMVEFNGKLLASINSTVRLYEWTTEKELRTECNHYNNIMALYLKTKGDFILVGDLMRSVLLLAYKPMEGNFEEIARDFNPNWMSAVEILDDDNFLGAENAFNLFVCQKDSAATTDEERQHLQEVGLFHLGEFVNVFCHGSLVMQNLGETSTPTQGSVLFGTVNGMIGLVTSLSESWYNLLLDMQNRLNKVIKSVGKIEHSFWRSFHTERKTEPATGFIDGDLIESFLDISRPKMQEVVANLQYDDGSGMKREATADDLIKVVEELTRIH

IKZF2 = molecular target: T2, IKZF2 (Homo sapiens, UniProt Q96SW2+Q9UKS7); test: Western-blot assay of substrate protein degradation in hPBMCs, IKZF2; format: cell-based; details: 24 hours of compound treatment, compounds tested at 50 nM and 500 nM (concentration of the table not stated)
T2 construct: endogenous in cells; host or cells: hPBMCs (Milecell Biotechnologies)
T2 sequence (Q9UKS7 whole entry): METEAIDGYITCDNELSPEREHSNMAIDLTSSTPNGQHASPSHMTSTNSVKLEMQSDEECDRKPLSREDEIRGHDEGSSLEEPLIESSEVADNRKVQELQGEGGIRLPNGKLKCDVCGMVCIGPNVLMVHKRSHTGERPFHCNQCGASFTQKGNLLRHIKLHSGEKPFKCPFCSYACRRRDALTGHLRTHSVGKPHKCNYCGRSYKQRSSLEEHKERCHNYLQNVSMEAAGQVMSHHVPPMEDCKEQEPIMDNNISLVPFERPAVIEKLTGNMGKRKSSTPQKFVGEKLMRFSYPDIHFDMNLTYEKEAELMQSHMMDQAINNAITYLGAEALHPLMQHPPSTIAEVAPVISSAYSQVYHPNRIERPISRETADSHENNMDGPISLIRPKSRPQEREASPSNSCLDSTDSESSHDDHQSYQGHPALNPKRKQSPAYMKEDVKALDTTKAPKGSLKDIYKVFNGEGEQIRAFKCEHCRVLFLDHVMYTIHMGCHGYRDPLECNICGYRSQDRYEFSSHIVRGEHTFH
T2 sequence (Q96SW2 whole entry): as the sequence (Q96SW2 whole entry) above
T2 sequence (Q16531 whole entry partner): as the sequence (Q16531 whole entry partner) above

[1] = system: Human acute T lymphocytic leukemia cells (Molt-4); test: Tumor cell proliferation inhibition (CellTiter-Meiluncell Luminescent Cell Viability Assay), Molt-4; details: MOLT-4, 96 h, read-out: inhibitory activity (IC50, nM) against tumor cells proliferation, Molt 4
Experimental: (§1) The tumor cells used herein were cultured in a cell culture medium listed in table 2 at 37°C in an incubator with 5% CO2. Prior to experimentation, all cell lines used were correctly identified by STR profiling, and tested negative for mycoplasma contamination using a mycoplasma detection kit through routine screenings.
(§2) On the following day, the test compounds of the present disclosure were subjected to serial dilution. […] Subsequently, 0.5 µL of the test compound dilution was transferred into the 96-well plate containing the cells, with each well containing 100 µL of cell culture medium. […] Into the 96-well plate, the diluted test compounds and corresponding detection reagents were added, resulting in final test compound concentrations of 500 nM and 10 nM, respectively. The experimental procedure is described below using the diluted 2 µM test compound as an example.
(§3) After the cells were treated with the compounds of the present disclosure for a specified period (the treatment durations were shown in Table 3), the cell viability assay reagent was added to the culture medium according to the kit's instructions to determine cell viability. […] All controls were treated using the same procedure as the compounds of the present disclosure. The growth inhibition curves for the compounds of the present disclosure were plotted using Prism GraphPad software, and the IC50 values were calculated therefrom.

WEE1 = molecular target: T3, WEE1 (Homo sapiens, UniProt P30291+Q96SW2); test: Western-blot assay of substrate protein degradation in hPBMCs, WEE1; format: cell-based; details: 24 hours of compound treatment, compounds tested at 50 nM and 500 nM (concentration of the table not stated)
T3 construct: endogenous in cells; host or cells: hPBMCs (Milecell Biotechnologies)

Jurkat = test: Tumor cell proliferation inhibition (CellTiter-Meiluncell Luminescent Cell Viability Assay), Jurkat; details: Homo sapiens, 96 h, read-out: inhibitory activity (IC50, nM) against tumor cells proliferation, Jurkat
CK1α = molecular target: T4, CK1α (Homo sapiens, UniProt P48729+Q96SW2); test: Western-blot assay of substrate protein degradation in hPBMCs, CK1α; format: cell-based; details: 24 hours of compound treatment, compounds tested at 50 nM and 500 nM (concentration of the table not stated)
T4 construct: endogenous in cells; host or cells: hPBMCs (Milecell Biotechnologies)
T4 sequence (P48729 whole entry): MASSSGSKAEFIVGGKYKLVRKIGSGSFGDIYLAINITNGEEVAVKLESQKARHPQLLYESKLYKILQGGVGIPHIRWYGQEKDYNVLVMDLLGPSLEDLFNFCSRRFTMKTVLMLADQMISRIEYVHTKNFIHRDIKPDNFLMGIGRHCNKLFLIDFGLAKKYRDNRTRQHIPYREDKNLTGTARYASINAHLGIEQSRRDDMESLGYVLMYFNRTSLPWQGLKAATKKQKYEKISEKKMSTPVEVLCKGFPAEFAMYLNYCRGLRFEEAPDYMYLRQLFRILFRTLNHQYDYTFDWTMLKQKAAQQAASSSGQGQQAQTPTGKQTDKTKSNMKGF
T4 sequence (Q96SW2 whole entry): as the sequence (Q96SW2 whole entry) above
T4 sequence (Q16531 whole entry partner): as the sequence (Q16531 whole entry partner) above

Vcap = test: Tumor cell proliferation inhibition (CellTiter-Meiluncell Luminescent Cell Viability Assay), Vcap; details: Homo sapiens, 96 h, read-out: inhibitory activity (IC50, nM) against tumor cells proliferation, Vcap
MM.1R = test: Tumor cell proliferation inhibition (CellTiter-Meiluncell Luminescent Cell Viability Assay), MM.1R; details: Homo sapiens, 96 h, read-out: inhibitory activity (IC50, nM) against tumor cells proliferation, MM.1R
GSPT1 = molecular target: T5, GSPT1 (Homo sapiens, UniProt P15170+Q96SW2); test: Western-blot assay of substrate protein degradation in hPBMCs, GSPT1; format: cell-based; details: 24 hours of compound treatment, compounds tested at 50 nM and 500 nM (concentration of the table not stated)
T5 construct: endogenous in cells; host or cells: hPBMCs (Milecell Biotechnologies)
T5 sequence (P15170 whole entry): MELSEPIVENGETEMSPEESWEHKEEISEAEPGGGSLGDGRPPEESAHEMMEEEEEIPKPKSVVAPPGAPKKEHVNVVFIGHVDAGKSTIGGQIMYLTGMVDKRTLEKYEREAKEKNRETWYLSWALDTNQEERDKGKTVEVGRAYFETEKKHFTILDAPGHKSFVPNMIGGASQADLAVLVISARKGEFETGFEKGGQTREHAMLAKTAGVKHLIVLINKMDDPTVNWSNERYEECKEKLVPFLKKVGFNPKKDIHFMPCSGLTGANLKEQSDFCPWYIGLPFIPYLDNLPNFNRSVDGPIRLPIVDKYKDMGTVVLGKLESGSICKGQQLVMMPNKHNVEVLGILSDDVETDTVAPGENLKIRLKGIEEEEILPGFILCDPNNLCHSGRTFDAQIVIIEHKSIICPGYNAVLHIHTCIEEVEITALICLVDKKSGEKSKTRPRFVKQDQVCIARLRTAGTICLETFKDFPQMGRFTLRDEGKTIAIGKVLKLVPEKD
T5 sequence (Q96SW2 whole entry): as the sequence (Q96SW2 whole entry) above
T5 sequence (Q16531 whole entry partner): as the sequence (Q16531 whole entry partner) above

CCRF-CEM = test: Tumor cell proliferation inhibition (CellTiter-Meiluncell Luminescent Cell Viability Assay), CCRF-CEM; details: Homo sapiens, 96 h, read-out: inhibitory activity (IC50, nM) against tumor cells proliferation, CCRF-CEM
[2] = molecular target: T6, human Cereblon WT GST-tagged protein (Homo sapiens, UniProt Q96SW2); test: CRBN-binding affinity by HTRF (CEREBLON BINDING kit); details: HTRF inhibitory activity, CEREBLON BINDING kit; read-out: HTRF IC50
T6 construct: purchased CISBIO 64BDCRBNPEH
T6 sequence (Q96SW2 whole entry): as the sequence (Q96SW2 whole entry) above

CAL-62 = test: Tumor cell proliferation inhibition (CellTiter-Meiluncell Luminescent Cell Viability Assay), CAL-62; details: Homo sapiens, CAL-62, 96 h, read-out: inhibitory activity (IC50, nM) against tumor cells proliferation, CAL-62
IKZF3 = molecular target: T7, IKZF3 (Homo sapiens, UniProt Q96SW2+Q9UKT9); test: Western-blot assay of substrate protein degradation in hPBMCs, IKZF3; format: cell-based; details: 24 hours of compound treatment, compounds tested at 50 nM and 500 nM (concentration of the table not stated)
T7 construct: endogenous in cells; host or cells: hPBMCs (Milecell Biotechnologies)
T7 sequence (Q9UKT9 whole entry): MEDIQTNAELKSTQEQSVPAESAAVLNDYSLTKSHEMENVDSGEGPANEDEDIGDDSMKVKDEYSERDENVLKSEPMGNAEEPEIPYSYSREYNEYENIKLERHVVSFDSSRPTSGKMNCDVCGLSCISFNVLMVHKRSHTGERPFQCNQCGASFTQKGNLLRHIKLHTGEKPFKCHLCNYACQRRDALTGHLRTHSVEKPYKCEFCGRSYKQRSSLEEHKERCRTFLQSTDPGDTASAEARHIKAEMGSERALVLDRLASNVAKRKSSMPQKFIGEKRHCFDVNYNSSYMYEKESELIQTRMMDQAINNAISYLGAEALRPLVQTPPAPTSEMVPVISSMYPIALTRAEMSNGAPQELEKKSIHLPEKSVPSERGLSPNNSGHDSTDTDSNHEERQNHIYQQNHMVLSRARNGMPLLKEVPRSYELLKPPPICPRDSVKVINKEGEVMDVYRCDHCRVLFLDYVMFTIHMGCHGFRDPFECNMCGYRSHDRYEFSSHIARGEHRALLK
T7 sequence (Q96SW2 whole entry): as the sequence (Q96SW2 whole entry) above
T7 sequence (Q16531 whole entry partner): as the sequence (Q16531 whole entry partner) above

[3] = system: Human breast cancer cells (MDA-MB-231); test: Tumor cell proliferation inhibition (CellTiter-Meiluncell Luminescent Cell Viability Assay), MDA-MB-231; details: MDA-MB-231, 96 h, read-out: inhibitory activity (IC50, nM) against tumor cells proliferation, MDA-MB-231
TMD8 = test: Tumor cell proliferation inhibition (CellTiter-Meiluncell Luminescent Cell Viability Assay), TMD8; details: Homo sapiens, TMD8, 96 h, read-out: inhibitory activity (IC50, nM) against tumor cells proliferation, TMD8
Experimental: as §1, §2, §3

NCI-H1975 = test: Tumor cell proliferation inhibition (CellTiter-Meiluncell Luminescent Cell Viability Assay), NCI-H1975; details: Homo sapiens, NCI-H1975, 96 h, read-out: inhibitory activity (IC50, nM) against tumor cells proliferation, H1975

Row | Structure (SMILES) | IC50 [1] | IC50 (Jurkat) | IC50 (Vcap) | IC50 (MM.1R) | IC50 (CCRF-CEM) | IC50 [2] | IC50 (CAL-62) | IC50 [3] | IC50 (TMD8) | IC50 (NCI-H1975) | IKZF 1 substrate protein remaining % (IKZF1) | IKZF2 substrate protein remaining % (IKZF2) | Weel substrate protein remaining % (WEE1) | CK1a substrate protein remaining % (CK1α) | GSPT1 substrate protein remaining % (GSPT1) | IKZF3 substrate protein remaining % (IKZF3)
1 | O=C1CCC(N2Cc3cc(CN4CCN(c5cc(Cl)ccn5)CC4)ccc3C2=O)C(=O)N1 (centres unmarked) [GT-04430, 3-(5-((4-(4-chloropyridin-2-yl)piperazin-1-yl)methyl)-1-oxoisoindolin-2-yl)piperidine-2,6-dione] | 10 to 50 nM | 10 to 50 nM | 100 to 500 nM | 50 to 100 nM | 10 to 50 nM | 500 to 1000 nM | 50 to 100 nM |  |  |  | A (0% ≤ substrate protein remaining % ≤ 80%) | A (0% ≤ substrate protein remaining % ≤ 80%) | B (80%< substrate protein remaining %≤ 100%) | B (80%< substrate protein remaining %≤ 100%) | A (0% ≤ substrate protein remaining % ≤ 80%) | A (0% ≤ substrate protein remaining % ≤ 80%)
2 | Cc1ccccc1N1CCN(Cc2ccc3c(c2)CN(C2CCC(=O)NC2=O)C3=O)CC1 (centres unmarked) [GT-04461, 3-(1-oxo-5-((4-(o-tolyl)piperazin-1-yl)methyl)isoindolin-2-yl)piperidine-2,6-dione] | 10 to 50 nM | 10 to 50 nM | 100 to 500 nM | 10 to 50 nM | 10 to 50 nM | 1000 to 1500 nM | 50 to 100 nM |  |  |  | A (0% ≤ substrate protein remaining % ≤ 80%) | A (0% ≤ substrate protein remaining % ≤ 80%) | A (0% ≤ substrate protein remaining % ≤ 80%) | B (80%< substrate protein remaining %≤ 100%) | A (0% ≤ substrate protein remaining % ≤ 80%) | A (0% ≤ substrate protein remaining % ≤ 80%)
3 | O=C1CCC(N2Cc3cc(CN4CCC(c5ccc(F)cc5)CC4)ccc3C2=O)C(=O)N1 (centres unmarked) [GT-04471, 3-(5-((4-(4-fluorophenyl)piperidin-1-yl)methyl)-1-oxoisoindolin-2-yl)piperidine-2,6-dione] | 10 to 50 nM | 10 to 50 nM | 100 to 500 nM | 50 to 100 nM | 10 to 50 nM | 500 to 1000 nM | 100 to 500 nM |  |  |  | A (0% ≤ substrate protein remaining % ≤ 80%) | A (0% ≤ substrate protein remaining % ≤ 80%) | A (0% ≤ substrate protein remaining % ≤ 80%) | B (80%< substrate protein remaining %≤ 100%) | A (0% ≤ substrate protein remaining % ≤ 80%) | A (0% ≤ substrate protein remaining % ≤ 80%)
4 | COc1ccccc1N1CCN(Cc2ccc3c(c2)CN(C2CCC(=O)NC2=O)C3=O)CC1 (centres unmarked) [GT-04490, 3-(5-((4-(2-methoxyphenyl)piperazin-1-yl)methyl)-1-oxoisoindolin-2-yl)piperidine-2,6-dione] | 100 to 500 nM | 50 to 100 nM | 500 to 1000 nM | 100 to 500 nM | 50 to 100 nM | 500 to 1000 nM | 500 to 1000 nM |  |  |  | B (80%< substrate protein remaining %≤ 100%) | A (0% ≤ substrate protein remaining % ≤ 80%) | B (80%< substrate protein remaining %≤ 100%) | A (0% ≤ substrate protein remaining % ≤ 80%) | A (0% ≤ substrate protein remaining % ≤ 80%) | B (80%< substrate protein remaining %≤ 100%)
5 | O=C1CCC(N2Cc3cc(CN4CCC(c5ccc(Br)cc5)CC4)ccc3C2=O)C(=O)N1 (centres unmarked) [GT-04493, 3-(5-((4-(4-bromophenyl)piperidin-1-yl)methyl)-1-oxoisoindolin-2-yl)piperidine-2,6-dione] |  | 10 to 50 nM | 100 to 500 nM | 10 to 50 nM | 10 to 50 nM | 500 to 1000 nM | 10 to 50 nM |  |  |  | B (80%< substrate protein remaining %≤ 100%) | A (0% ≤ substrate protein remaining % ≤ 80%) | A (0% ≤ substrate protein remaining % ≤ 80%) | A (0% ≤ substrate protein remaining % ≤ 80%) | A (0% ≤ substrate protein remaining % ≤ 80%) | B (80%< substrate protein remaining %≤ 100%)
6 | O=C1CCC(N2Cc3cc(CN4CCC(c5noc6cc(F)ccc56)CC4)c(F)cc3C2=O)C(=O)N1 (centres unmarked) [GT-04766, 3-(6-fluoro-5-((4-(6-fluorobenzo[d]isoxazol-3-yl)piperidin-1-yl)methyl)-1-oxoisoindolin-2-yl)piperidine-2,6-dione] | 1 to 5 nM |  |  |  |  | 1500 to 1900 nM |  | 10 to 50 nM | 10 to 50 nM | 10 to 50 nM |  |  |  |  |  | 

Now from value to molecule, other results behind:

Row | IC50 [1] | IC50 (Jurkat) | IC50 (Vcap) | IC50 (MM.1R) | IC50 (CCRF-CEM) | IC50 [2] | IC50 (CAL-62) | IC50 [3] | IC50 (TMD8) | IC50 (NCI-H1975) | Structure (SMILES) | IKZF 1 substrate protein remaining % (IKZF1) | IKZF2 substrate protein remaining % (IKZF2) | Weel substrate protein remaining % (WEE1) | CK1a substrate protein remaining % (CK1α) | GSPT1 substrate protein remaining % (GSPT1) | IKZF3 substrate protein remaining % (IKZF3)
7 | 100 to 500 nM |  |  |  |  | < 500 nM |  | 500 to 1000 nM | 500 to 1000 nM |  | O=C1CCC(N2Cc3cc(CN4CCN(c5c[nH]c6ncccc56)CC4)ccc3C2=O)C(=O)N1 (centres unmarked) [GT-04601, 3-(5-((4-(1H-pyrrolo[2,3-b]pyridin-3-yl)piperazin-1-yl)methyl)-1-oxoisoindolin-2-yl)piperidine-2,6-dione] | A (0% ≤ substrate protein remaining % ≤ 80%) | B (80%< substrate protein remaining %≤ 100%) | A (0% ≤ substrate protein remaining % ≤ 80%) | A (0% ≤ substrate protein remaining % ≤ 80%) | A (0% ≤ substrate protein remaining % ≤ 80%) | A (0% ≤ substrate protein remaining % ≤ 80%)
8 | 10 to 50 nM |  |  |  |  | < 500 nM |  | 100 to 500 nM | 500 to 1000 nM |  | Cc1sc2ncnc(C3=CCN(Cc4ccc5c(c4)CN(C4CCC(=O)NC4=O)C5=O)CC3)c2c1C (centres unmarked) [GT-04727, 3-(5-((4-(5,6-dimethylthieno[2,3-d]pyrimidin-4-yl)-3,6-dihydropyridin-1(2H)-yl)methyl)-1-oxoisoindolin-2-yl)piperidine-2,6-dione] | A (0% ≤ substrate protein remaining % ≤ 80%) | B (80%< substrate protein remaining %≤ 100%) | A (0% ≤ substrate protein remaining % ≤ 80%) | A (0% ≤ substrate protein remaining % ≤ 80%) | A (0% ≤ substrate protein remaining % ≤ 80%) | A (0% ≤ substrate protein remaining % ≤ 80%)
